Data on one compound can be found in patent US20100004704A1, “METHOD FOR TREATING A CARDIAC RHYTHM DISTURBANCE” (The Cleveland Clinic Foundation, priority 2008, published 2010).

This experiment concerns open-chest canines. Put plainly: Dobutamine infusion followed by vagal (sinus node fat pad) stimulation, hemodynamics in open-chest canines. The experiment is classed as in vivo. As to the method:
A study was done to assess the effects of dobutamine administration followed by vagal stimulation on sinus tachycardia. The study was done using 4 open-chest canines. Dobutamine was infused at a rate of 2.5-7.5 μg/kg/min to increase the cardiac contractility and the sinus rate at least 30 beats per minute. Vagal nerve stimulation was applied at the epicardial sinus node fat pad, located at the junction of the right pulmonary vein and the right atrium. Vagal stimulation was done with an electrical lead comprising a silicone plate with four platinum electrodes imbedded therein. Rectangular current pulses were delivered with intensity in the range of 1 to 5 mA, duration of pulse in the range of 0.1 ms to 1 ms, and frequency of repetition of the pulses between 20-30 Hz. To avoid tissue polarization, the polarity of consecutive pulses was alternated. Vagal nerve stimulation was administered to slow the sinus rate to the control level. Hemodynamic data was collected and compared in canines during control, during administration of dobutamine, and during both dobutamine and vagal stimulation.

[1] abbreviates: dobutamine + vagal stimulation at sinus node fat pad.
Where [2] appears, read: dobutamine infused 2.5-7.5 μg/kg/min, no vagal stimulation.

As to `CC(CCc1ccc(O)cc1)NCCc1ccc(O)c(O)c1` (stereo not drawn) [Dobutamine, dobutamine], the RR interval (dobutamine 2.5-7.5 μg/kg/min + vagal stimulation at sinus node fat pad (1-5 mA, 0.1-1 ms, 20-30 Hz)) worked out at 560 ± 16 ms. Besides, under setting [1], the “+dp/dt” value is reported as 2980 ± 602 mmHg/s, the CO came out at 3.6 ± 0.8 L/min, the DBP is 74 ± 7 mmHg and the LVEDP amounted to 7.6 ± 1.5 mmHg. Also, under setting [1], the LVSP is recorded as 120 ± 16 mmHg, the SBP was determined as 126 ± 12 mmHg and the “−dp/dt” value is on record as −1897 ± −313 mmHg/s. The “heart rate, systolic blood pressure (SBP), diastolic blood pressure (DBP), left ventricular systolic pressure (LVSP) (and its ±dp/dt), and cardiac output (CO)” value (dobutamine administration vs. control, open-chest canines) is “significantly increased”. This compound yielded an RR interval (dobutamine infused 2.5-7.5 μg/kg/min, 4 open-chest canines, no vagal stimulation) of 421 ± 36 ms. For the same compound, under setting [2], the “+dp/dt” value was 3607 ± 861 mmHg/s, the CO was found to be 4.2 ± 0.9 L/min, the DBP stood at 84 ± 7 mmHg and the LVEDP is 6.9 ± 2.2 mmHg. Under setting [2], the LVSP came out at 130 ± 13 mmHg, the SBP is given as 135 ± 18 mmHg and the “−dp/dt” value is given as −2259 ± −495 mmHg/s. The sinus rate increase result (vagal stimulation combined with dobutamine, all other hemodynamic benefits preserved) is given as “eliminated sinus rate increase”.
